In brackets after ≈: the same amount, converted by molar mass. Where two headings read alike, the source gives them in different places.
What was measured:
Type in all cases: cell-based
[1] = test system: K. pneumoniae 4104; test: MIC against K. pneumoniae 4104; conditions: K. pneumoniae 4104, KPC-3, TEM-1
Experimental: (§1) As shown, the foregoing composition was tested for minimum inhibitory concentration (MIC, μg/mL) against bacteria listed in Tables 2-3.

[2] = test system: K. pneumoniae 4105; test: MIC against K. pneumoniae 4105; conditions: K. pneumoniae 4105, KPC-3, TEM-1, SHV-11
Experimental: as §1

[3] = test system: K. pneumoniae 4106; test: MIC against K. pneumoniae 4106; conditions: K. pneumoniae 4106, KPC-3, TEM-1, SHV-12, SHV-141
Experimental: as §1

[4] = test system: K. pneumoniae 4107; test: MIC against K. pneumoniae 4107; conditions: K. pneumoniae 4107, KPC-2, TEM-1, SHV-11
Experimental: as §1

[5] = test system: K. pneumoniae 4108; test: MIC against K. pneumoniae 4108; conditions: K. pneumoniae 4108, KPC-3, TEM-166, SHV-12, SHV-141
Experimental: as §1

[6] = test system: K. pneumoniae 2689; test: MIC against K. pneumoniae 2689; conditions: K. pneumoniae 2689, KPC-2
Experimental: as §1

[7] = test system: E. cloacae 2689; test: MIC against E. cloacae 2689; conditions: Table 3, E. cloacae 2689, KPC-2
Experimental: as §1

[8] = test system: E. cloacae 2705; test: MIC against E. cloacae 2705; conditions: Table 3, E. cloacae 2705, VIM-1, KPC-3type
Experimental: as §1

[9] = test system: E. cloacae 2706; test: MIC against E. cloacae 2706; conditions: Table 3, E. cloacae 2706, VIM-1, KPC-3
Experimental: as §1

[10] = test system: E. cloacae 2709; test: MIC against E. cloacae 2709; conditions: Table 3, E. cloacae 2709, KPC-3, VIM-1
Experimental: as §1

[11] = test system: E. cloacae 2710; test: MIC against E. cloacae 2710; conditions: Table 3, E. cloacae 2710, KPC-3, VIM-1
Experimental: as §1

[12] = test system: E. coli 2666; test: MIC against E. coli 2666; conditions: Table 3, E. coli 2666, KPC-2
Experimental: as §1

[13] = test system: E. coli 4103; test: MIC against E. coli 4103; conditions: Table 3, E. coli 4103, KPC-2, TEM-1, CMY-type
Experimental: as §1

[14] = test system: K. pneumoniae 2690; test: MIC against K. pneumoniae 2690; conditions: Table 3, K. pneumoniae 2690, KPC-2
Experimental: as §1

[15] = test system: K. pneumoniae 2711; test: MIC against K. pneumoniae 2711; conditions: Table 3, K. pneumoniae 2711, KPC-3, VIM-1
Experimental: as §1

[16] = test system: K. pneumoniae 2712; test: MIC against K. pneumoniae 2712; conditions: Table 3, K. pneumoniae 2712, KPC-3, VIM-1
Experimental: as §1

[17] = test system: K. pneumoniae 2713; test: MIC against K. pneumoniae 2713; conditions: Table 3, K. pneumoniae 2713, KPC-3, VIM-1
Experimental: as §1

[18] = test system: K. pneumoniae 4088; test: MIC against K. pneumoniae 4088; conditions: Table 3, K. pneumoniae 4088, KPC-3
Experimental: as §1

[19] = test system: P. aeruginosa 2686; test: MIC against P. aeruginosa 2686; conditions: Table 3, P. aeruginosa 2686, KPC-2
Experimental: as §1

[20] = Klebsiella pneumoniae, 4104, Table 3, alone, read-out: MIC
[21] = Table 3, in combination with NXL-104
[22] = Klebsiella pneumoniae, 4105, Table 3, alone, read-out: MIC
[23] = Klebsiella pneumoniae, 4106, Table 3, alone, read-out: MIC
[24] = Klebsiella pneumoniae, 4107, Table 3, alone, read-out: MIC
[25] = Klebsiella pneumoniae, 4108, Table 3, alone, read-out: MIC
[26] = Klebsiella pneumoniae, 2689, Table 3, alone, read-out: MIC
[27] = Enterobacter cloacae, alone, read-out: MIC
[28] = Escherichia coli, alone, read-out: MIC
[29] = Klebsiella pneumoniae, alone, read-out: MIC
[30] = Pseudomonas aeruginosa, alone, read-out: MIC

Row | Compound | MIC [1, 20] [µg/mL] | MIC [1, 21] [µg/mL] | MIC [2, 22] [µg/mL] | MIC [2, 21] [µg/mL] | MIC [3, 23] [µg/mL] | MIC [3, 21] [µg/mL] | MIC [4, 24] [µg/mL] | MIC [4, 21] [µg/mL] | MIC [5, 25] [µg/mL] | MIC [5, 21] [µg/mL] | MIC [6, 26] [µg/mL] | MIC [6, 21] [µg/mL] | MIC [7, 27] [µg/mL] | MIC ([7]; in combination with NXL-104) [µg/mL] | MIC [8, 27] [µg/mL] | MIC ([8]; in combination with NXL-104) [µg/mL] | MIC [9, 27] [µg/mL] | MIC ([9]; in combination with NXL-104) [µg/mL] | MIC [10, 27] [µg/mL] | MIC ([10]; in combination with NXL-104) [µg/mL] | further results
1 | CC(C)(O/N=C(\C(=O)N[C@@H]1C(=O)N2C(C(=O)[O-])=C(C[n+]3ccc4n(Cc5ccc(C(=N)N)cc5)ccn43)CS[C@H]12)c1csc(N)n1)C(=O)O [Example 4, (6R,7R)-7-{[(2Z)-2-(2-Amino-1,3-thiazol-4-yl)-2-{[(2-carboxypropan-2-yl)oxy]imino}acetyl]amino}-3-{[1-(4-carbamimidoylbenzyl)-1H-imidazo[1,2-b]pyrazol-5-ium-5-yl]methyl}-8-oxo-5-thia-1-azabicyclo[4.2.0]oct-2-ene-2-carboxylate] | 16 (≈ 22.6 µM) | 1 | > 32 | 2 | 32 (≈ 45.3 µM) | 4 | 32 (≈ 45.3 µM) | 2 | > 32 | 2 | 16 (≈ 22.6 µM) | 1 | 4 (≈ 5.66 µM) | 0.5 | > 32 | >32 | > 32 | 32 | 8 (≈ 11.3 µM) | 4 | MIC [11, 27]: > 32 µg/mL; MIC ([11]; in combination with NXL-104): >32 µg/mL; MIC [12, 28]: 32 µg/mL (≈ 45.3 µM); MIC ([12]; in combination with NXL-104): 2 µg/mL; MIC [13, 28]: > 32 µg/mL; MIC ([13]; in combination with NXL-104): 8 µg/mL; MIC [14, 29]: 16 µg/mL (≈ 22.6 µM); MIC ([14]; in combination with NXL-104): 2 µg/mL; MIC [15, 29]: 8 µg/mL (≈ 11.3 µM); MIC ([15]; in combination with NXL-104): 1 µg/mL; MIC [16, 29]: > 32 µg/mL; MIC ([16]; in combination with NXL-104): 4 µg/mL; MIC [17, 29]: > 32 µg/mL; MIC ([17]; in combination with NXL-104): 2 µg/mL; MIC [18, 29]: > 32 µg/mL; MIC ([18]; in combination with NXL-104): 4 µg/mL; MIC [19, 30]: 32 µg/mL (≈ 45.3 µM); MIC ([19]; in combination with NXL-104): 8 µg/mL
2 | CO/N=C(\C(=O)N[C@@H]1C(=O)N2C(C(=O)[O-])=C(C[n+]3ccc4c(ccn4Cc4cc(C(=N)Nc5ccccc5)cs4)c3)CS[C@H]12)c1nc(N)sc1Cl [Example 12, (6R,7R)-7-{[(2Z)-2-(2-Amino-5-chloro-1,3-thiazol-4-yl)-2-(methoxyimino)acetyl]amino}-8-oxo-3-[(1-{[4-(N-phenylcarbamimidoyl)thiophen-2-yl]methyl}-1H-pyrrolo[3,2-c]pyridin-5-ium-5-yl)methyl]-5-thia-1-azabicyclo[4.2.0]oct-2-ene-2-carboxylate] | 16 (≈ 21 µM) | 1 | 32 (≈ 42 µM) | 2 | 32 (≈ 42 µM) | 2 | 16 (≈ 21 µM) | 1 | 32 (≈ 42 µM) | 1 | 16 (≈ 21 µM) | 1 | 32 (≈ 42 µM) | 1 | > 32 | >32 | > 32 | >32 | 32 (≈ 42 µM) | 4 | MIC [11, 27]: > 32 µg/mL; MIC ([11]; in combination with NXL-104): >32 µg/mL; MIC [12, 28]: 16 µg/mL (≈ 21 µM); MIC ([12]; in combination with NXL-104): 1 µg/mL; MIC [13, 28]: > 32 µg/mL; MIC ([13]; in combination with NXL-104): 4 µg/mL; MIC [14, 29]: 8 µg/mL (≈ 10.5 µM); MIC ([14]; in combination with NXL-104): 1 µg/mL; MIC [15, 29]: 4 µg/mL (≈ 5.25 µM); MIC ([15]; in combination with NXL-104): 0.5 µg/mL; MIC [16, 29]: > 32 µg/mL; MIC ([16]; in combination with NXL-104): 4 µg/mL; MIC [17, 29]: > 32 µg/mL; MIC ([17]; in combination with NXL-104): 2 µg/mL; MIC [18, 29]: > 32 µg/mL; MIC ([18]; in combination with NXL-104): 2 µg/mL; MIC [19, 30]: 32 µg/mL (≈ 42 µM); MIC ([19]; in combination with NXL-104): 32 µg/mL
3 | CO/N=C(\C(=O)N[C@@H]1C(=O)N2C(C(=O)[O-])=C(C[n+]3ccc4c(ccn4Cc4cc(C(=N)Nc5nccs5)cs4)c3)CS[C@H]12)c1nc(N)sc1Cl [Example 14, (6R,7R)-7-{[(2Z)-2-(2-Amino-5-chloro-1,3-thiazol-4-yl)-2-(methoxyimino)acetyl]amino}-8-oxo-3-{[1-({4-[N-(1,3-thiazol-2-yl)carbamimidoyl]thiophen-2-yl}methyl)-1H-pyrrolo[3,2-c]pyridin-5-ium-5-yl]methyl}-5-thia-1-azabicyclo[4.2.0]oct-2-ene-2-carboxylate] | 32 (≈ 41.6 µM) | 1 | > 32 | 2 | > 32 | 4 | 16 (≈ 20.8 µM) | 2 | > 32 | 2 | 32 (≈ 41.6 µM) | 1 | 16 (≈ 20.8 µM) | 0.5 | > 32 | >32 | > 32 | 32 | 32 (≈ 41.6 µM) | 4 | MIC [11, 27]: > 32 µg/mL; MIC ([11]; in combination with NXL-104): >32 µg/mL; MIC [12, 28]: 32 µg/mL (≈ 41.6 µM); MIC ([12]; in combination with NXL-104): 1 µg/mL; MIC [13, 28]: > 32 µg/mL; MIC ([13]; in combination with NXL-104): 8 µg/mL; MIC [14, 29]: 32 µg/mL (≈ 41.6 µM); MIC ([14]; in combination with NXL-104): 1 µg/mL; MIC [15, 29]: 4 µg/mL (≈ 5.2 µM); MIC ([15]; in combination with NXL-104): 0.5 µg/mL; MIC [16, 29]: > 32 µg/mL; MIC ([16]; in combination with NXL-104): 4 µg/mL; MIC [17, 29]: > 32 µg/mL; MIC ([17]; in combination with NXL-104): 2 µg/mL; MIC [18, 29]: > 32 µg/mL; MIC ([18]; in combination with NXL-104): 4 µg/mL; MIC [19, 30]: > 32 µg/mL; MIC ([19]; in combination with NXL-104): 16 µg/mL
